Laboratory results published in US20120178177A1, “Biological Components Within the Cerebrospinal Fluid” (priority 2009, published 2012).

How the values were obtained:
male SD rats [1] = test: Quantification of rat CS-MPs in CSF by Annexin V flow cytometry after intracerebroventricular injection; type: in vivo; conditions: LPS 50 μg/animal intracerebroventricular vs saline; CSF from cisterna magna after 24 hours; FIG. 3A
Experimental: (§1) Two groups of male SD rats (n=8 for each group) were intracerebroventricularly injected with either vehicle (Saline; NaCl 0.9%) or a test substance (Lipopolysaccharides; LPS). After 24 hours, CSF was collected directly in the cisterna magna and blood was obtained by retro-orbital puncture from each animal. CS-MPs and plasma MPs populations were prepared as described in the Materials & Methods of Example 1 and the concentrations of CS-MPs (A) and Plasma MPs (B) populations in the samples were quantified for both groups of animals by flow cytometry. Data are expressed as Mean±SEM (*: p<0.05). […] In a control experiment (C), the CSF and blood samples were collected respectively in the cisterna magna and by retro-orbital, puncture from healthy male SD rats (n=8). CS-MPs and Plasma MPs populations were prepared as described in the Materials & Methods section of Example 1 and then quantified by flow cytometry. Data are expressed as Mean±SEM (*: p<0.05). […]
(§2) The quantifications were performed using a FC500 flow cytometer (Beckman-Coulter, France) by incubating for 30 minutes in the dark each samples (30 μl) with 60 ng of His-tagged, Fluorescein-labelled Annexin V in incubation buffer (2.5 mM CaCl2, 140 mM NaCl, 10 mM HEPES pH 7.4). […] Each sample was then analyzed by flow cytometry. […]

TNFalpha = test: Gene expression of inflammatory markers in rat brain after intracerebroventricular injection (RT-QPCR); type: in vivo; conditions: LPS 50 μg/animal intracerebroventricular; rat brain (cortex, striatum, hippocampus); relative to 36B4 mRNA
Experimental: (§3) This experiment was elaborated on the basis of protocols described in previous publications (Sanna P et al., 1995). Briefly, male SD rats (225-250 g, CERJ, France) were anesthetized with pentobarbital (55 mg/kg) and positioned in a stereotaxic frame. Then, they received an intracerebroventricular injection of LPS (50 μg/animal in 3.3 μl of saline buffer) or saline (NaCl 0.9%) using a Kopf apparatus. The coordinates for the sterotaxic injections were −2.3 mm dorsal/ventral, −1.4 mm lateral, and −0.6 mm anterior/posterior from the bregma.
(§4) Total RNA was extracted using Qiagen RNA extraction kits following manufacturer's instructions. Total RNA was treated with DNase I (Ambion Inc., Austin, Tex., USA) at 37° C. for 30 minutes, followed by inactivation at 75° C. for 5 minutes. Real time quantitative PCR (RT-QPCR) assays were performed using an Applied Biosystems 7900 sequence detector. Total RNA (1 μg) was reverse transcribed with random hexamers using Taqman reverse-transcription reagents kit (Applied Biosystems) following the manufacturer's protocol. Gene expression levels were determined by Sybr green assays. 36B4 transcript was used as an internal control to normalize the variations for RNA amounts. Gene expression levels are expressed relative to 36B4 mRNA levels.
(§5) The specific primers used for the quantification were: […]

IL1beta = test: as above; type: in vivo; conditions: LPS 50 μg/animal intracerebroventricular; rat brain (cortex, striatum, hippocampus); relative to 36B4 mRNA
Experimental: as §3, §4, §5

male SD rats [2] = test: Quantification of rat Plasma MPs by Annexin V flow cytometry after intracerebroventricular injection; type: in vivo; conditions: LPS 50 μg/animal intracerebroventricular vs saline; plasma after 24 hours; FIG. 3B
Experimental: as §1, §2

SH-SY5Y cells [3] = test: Two-dimensional gel electrophoresis of MPs from SH-SY5Y cells; type: cell-based, human; conditions: MPs from SH-SY5Y cells treated with Staurosporine 100 and 500 nM vs vehicle; FIG. 5B
Experimental: (§6) The SH-SY5Y cells were maintained and differentiated in cell culture conditions as described under the Materials & Methods section of Example 2. Cells were then treated for 24 hours with Staurosporine at two different concentrations or with vehicle only. At the end of the treatment, culture medium was collected and MPs were isolated and subsequently quantified by flow cytometry. Those results are representative of several independent experiments. The resulting MPs populations have been isolated and characterized by flow cytometry (A) or by two-dimensional gel electrophoresis (B) as described in the Materials and Methods section. The three gels have been compared in an area comprised between approximately 10-60 kDa and pl 3.0 to 7.0. The boxes (named C, 1, and 2) define specific areas of interest in the captured images.
(§7) The human neuronal cell line SH-SY5Y (ATCC CRL-2266) was cultured in MEM/Ham's F12 medium (1:1) supplemented with 10% foetal bovine serum. Cells were seeded at 55,000 cells/cm^2. Cell differentiation was induced by adding 9-cis retinoic acid (5 μM) for 5 days directly to complete culture medium. […]
MPs populations were obtained from Staurosporine-induced SH-SY5Y cells as indicated above. […] Non-protein impurities were removed using the ReadyPrep 2D Cleanup kit prior to isoelectrofocalisation (IEF) steps. […]

SH-SY5Y cells [4] = test: Quantification of Annexin V-positive MPs released by differentiated SH-SY5Y cells (flow cytometry); type: cell-based, human; conditions: 24 hours treatment, Staurosporine 100 and 500 nM vs vehicle DMSO 0.1%, FIG. 5A
Experimental: as §6
as §7, with “medium. After 5 days, medium was replaced with complete medium supplemented with BDNF (50 ng/ml) for additional 5 days.” for “medium.”
MPs quantifications were performed by flow cytometry using fluorescein-labelled, His-tagged Annexin V, as indicated in Example 1 for CS-MPs and Plasma MPs.

Molecule	induction of CS-MP levels (male SD rats [1]) [fold]	induction of TNFalpha gene expression (TNFalpha) [fold]	induction of IL1beta gene expression (IL1beta) [fold]	change of Plasma MPs (male SD rats [2])	protein content of MPs on two-dimensional gel (SH-SY5Y cells [3])	change in Annexin V-positive MPs in cell culture medium (SH-SY5Y cells [4])
Lipopolysaccharides [LPS]	3	6	40	without a simultaneous and significant increase	–	–
CN[C@@H]1C[C@H]2O[C@@](C)([C@@H]1OC)n1c3ccccc3c3c4c(c5c6ccccc6n2c5c31)C(=O)NC4 [Staurosporine]	–	–	–	–	evident enrichment in proteins	significant and dose-dependent increase
